Like-named read-outs stand apart in the source and are kept apart here.

Assay [1] has as its system Alternaria alternata mixed with Aureobasidium pullulans. As to the kind of experiment: Fungal efficacy on dry paint film (Modified ASTM 5590), pool Aa + Ap. The class given is cell-based. The protocol:
(§1) A single biocide or blend of biocides was post added into white acrylic latex paint free of biocides to give a maximum total active ingredient/s concentration tested. This paint was then diluted with a biocide free acrylic latex paint to give targeted concentrations for the testing. Depending on the type of biocide blends tested, the total biocides concentrations varies from 400 to 3300 ppm. After biocides addition or dilution, each sample was hand mixed for at least a minute until uniformity was achieved. Each of the paint samples as well as a control sample (containing no biocide) were used to prepare films on black plastic-vinyl chloride/acetate copolymer panels (Leneta Company, Mahwah, N.J.) using a 0.0762 mm (3 mil) bird bar applicator. The panels were thoroughly dried for at least 2 days avoiding direct exposure to sunlight. Square discs (0.5 inch^2; 1.27 cm^2) were cut out from each panel and were used as the substrate for fungal and algal efficacy tests. This sample size allowed for an agar border when the sample disc was placed into the well of the test plate. Each sample was tested in duplicate.
(§2) The appropriate media (BOLD'S 3N for Chlorophytes, BG-11 for Cyanobacteria, and PDA for fungi) were used to support microbial growth. The test plates were maintained at room temp (25° C.-26° C.), in a cycled light-dark environment, for four weeks for algae. Plates for fungal challenge tests were maintained at 30° C. for four weeks. At the end of the incubation period the samples were scored for percent area covered by visible microbial growth.
(§3) Fungal efficacy was tested as follows (Modified ASTM 5590).
ASTM 5590 is a standard accelerated test method for determining resistance of various coatings (including paints) to fungal defacement. To accommodate for high-throughput screening, this method was scaled down from petri plates to 6-well plates. To set up the test, an agar plug was placed at the bottom of each well of the sterile 6-well plate. A single coupon was placed with a pair of sterile forceps at the center of the agar plug (on top) with the painted surface facing upwards. Fungal inoculums were prepared by mixing equal concentrations (approximately 1×10^6 cfu/ml) and equal volumes (depending on number of samples to be tested) of like growing organisms. For this synergy study, three pools of mixed fungi were prepared as the test inoculum. Cladosporium herbarum was mixed with Trichoderma viride, Aspergillus niger was mixed with Penicillium funiculosum and Alternaria alternata was mixed with Aureobasidium pullulans. […] The total percent area covered was evaluated and recorded at the end of each week and recorded in increments of 5%.
(§4) The SI is calculated based on F. C. […]

The subject of assay [2] is Gloeocapsa sp. and Oscillatoria sp. Nature of the assay: Algal efficacy on dry paint film (Modified ASTM 5589), pool Gs + Os. It is filed as cell-based. The procedure: as §1, §2
Algal efficacy was tested as follows (Modified ASTM 5589).
ASTM 5589 is a standard accelerated test method for determining resistance of various coatings (including paints) to algal defacement. To accommodate for high-throughput screening, this method was scaled down from petri plates to 6-well plates. A single coupon was placed with a pair of sterile forceps at the center of the agar plug (on top) with the painted surface facing upwards. Algal inoculums were prepared by mixing equal concentrations (approximately 1×10^6 cfu/ml) and equal volumes (depending on number of samples to be inoculated) of like growing organisms.
In this synergy study, three pool of mixed algae were prepared as the test inoculum, Gloeocapsa sp. and Oscillatoria sp. a mix of cyanobacteria grown on BG-11 media; Chlorella sp., Chlorella kessleri, and Nostoc commune are unicellular chlorphytes that were mixed and grown on Bold media; Trentepohlia aurea, Tretepohlia odorata, and Calotrix parientina are filamentous algae that were mixed and grown on Bold media.
Each well that contained a tested coupon was inoculated with 400 μl of organism mixture (approximately 1×10^6 cfu/ml) making sure that the whole surface (paint film as well as the agar surrounding it) was evenly covered. The plates were incubated at room temp (25° C.-26° C.) with cyclic exposure to light (OTT-Lite model # OTL4012P, 40 Watt, 26 KLumen) and dark phases, for a period of four weeks. The total area covered was evaluated at the end of each week according to percent area covered in 5% increments.
(§5) The SI is calculated based on F. C. Kull et.
(§6) SI value of <1 in the formula indicates a synergism of the blended biocides exists.
(§7) NE=no end point at the concentration tested that will meet the percent inhibition criteria set in each SI calculation.

For assay [3], the system named is Aspergillus niger mixed with Penicillium funiculosum. Nature of the assay: Fungal efficacy on dry paint film (Modified ASTM 5590), pool An + Pf. The note with it: for % Inhibition, An + Pf: dry film, four weeks. The class given is cell-based. The protocol:
as §1, §2, §3
ASTM 5590 is a standard accelerated test method for determining resistance of various coatings (including paints) to fungal defacement. To accommodate for high-throughput screening, this method was scaled down from petri plates to 6-well plates. To set up the test, an agar plug was placed at the bottom of each well of the sterile 6-well plate. A single coupon was placed with a pair of sterile forceps at the center of the agar plug (on top) with the painted surface facing upwards. Fungal inoculums were prepared by mixing equal concentrations (approximately 1×10^6 cfu/ml) and equal volumes (depending on number of samples to be tested) of like growing organisms. For this synergy study, three pools of mixed fungi were prepared as the test inoculum. Cladosporium herbarum was mixed with Trichoderma viride, Aspergillus niger was mixed with Penicillium funiculosum and Alternaria alternata was mixed with Aureobasidium pullulans. Each well was inoculated with 400 microliter of organism mixture (approximately 1×10^6 cfu/ml) making sure that the whole surface (paint film as well as the agar surrounding it) was evenly covered. The plates were incubated at 30° C. in presence of moisture, for a period of four weeks. The total percent area covered was evaluated and recorded at the end of each week and recorded in increments of 5%.
as §5, §6, §7

In assay [4] the test system is Cladosporium herbarum mixed with Trichoderma viride. Nature of the assay: Fungal efficacy on dry paint film (Modified ASTM 5590), pool TV + Ch. It is filed as cell-based. The procedure:
as §1, §2, §3
ASTM 5590 is a standard accelerated test method for determining resistance of various coatings (including paints) to fungal defacement. To accommodate for high-throughput screening, this method was scaled down from petri plates to 6-well plates. […] The total percent area covered was evaluated and recorded at the end of each week and recorded in increments of 5%.
as §4

Assay [5] has as its system green algae (Selenastrum capricornutum). The note with it: cited from earlier work.
Where [6] appears, read: Conc. 1500 ppm in paint, dry film, four weeks.
The mark [7] stands for this setting: Conc. 2500 ppm in paint, dry film, four weeks.
[8] abbreviates: Total conc 2500 ppm (synergy table).
Where [9] appears, read: Conc. 750 ppm in paint, dry film, four weeks.
Where [10] appears, read: Total conc 1500 ppm (synergy table).
The mark [11] stands for this setting: Total conc 750 ppm (synergy table).

For the compound Zinc Glyphosate, the “% inhibition, Aa + Ap” value in assay [1] (setting [6]) is listed as 47.5%; in assay [1] (setting [7]) it was 70%; in assay [1] (setting [8]) it was 70%. Also, the “% Inhibition, Gs + Os” value was 15% in assay [2] (setting [9]), 72.5% in assay [2] (setting [6]), 90% in assay [2] (setting [7]) and 72.5% in assay [2] (setting [10]). For the same compound, the “% Inhibition, An + Pf” value in assay [3] (Conc. 750 ppm in paint) is 20%; in assay [3] (Conc. 1500 ppm in paint), 27.5%; in assay [3] (Conc. 2500 ppm in paint), 30%. Besides, in assay [3] (setting [8]), the “% inhibition, AnPf” value stood at 30%. Also, the “% Inhibition, TV + Ch” value in assay [4] (setting [9]) was found to be 50%; in assay [4] (setting [7]) it was 90%.
In the case of `CCCCNC(=O)OCC#CI` [IPBC, 3-iodo-2-propynyl-butylcarbamate, reference compound], the “% inhibition, Aa + Ap” value in assay [1] (setting [11]) was found to be 90%. The “% Inhibition, Gs + Os” value in assay [2] (setting [10]) came out at 82.5%. In addition, the “% inhibition, AnPf” value in assay [3] (setting [11]) is on record as 65%. In addition, the “% Inhibition, TV + Ch” value in assay [4] (setting [10]) stood at 75%.
Turning to `O=C(O)CNCP(=O)(O)O` [Glyphosate, N-(phosphonomethyl)glycine], in assay [5] (72 hr), the “EbC50 (median effective concentration for biomass)” value was 485 mg/L and the “ErC50 (median effective concentration for growth rate)” value is 460 mg/L. For the same compound, the “EbC50 (median effective concentration for biomass)” value in assay [5] (7 day) was 13.8 mg/L.

Values taken from US8524636B2 (Dow Global Technologies LLC, priority 2010, dated 2013).
